Experimental findings from patent US20250353864A1, “INDAZOLE CONTAINING MACROCYCLES AND THEIR USE” (BLOSSOMHILL THERAPEUTICS, INC., priority 2022, published 2025) are described below.

Type in all cases: biochemical
Assay [1] deals with EGFR Δ746-750/C797S mutant (Homo sapiens (Human), UniProt P00533, C797S/DEL746-750). As to the kind of experiment: HotSpot radiometric kinase assay, EGFR Δ746-750/C797S mutant. As to conditions: 10 μM ATP. In outline: (§1)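 Radiometric filter-binding assay with EGFR mutant kinase/substrate pairs in 20 mM Hepes pH 7.5 with Mg, EGTA, Brij35, BSA, Na3VO4, DTT, 1% DMSO. Compound preincubated ~20 min, then ATP/^33P-ATP added at 10 μM final. Reaction 120 min at room temperature, spotted on P81 paper; IC50 from curve fits.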
EGFR Δ746-750/C797S mutant, sequence (P00533 other isoform, or with tags, fused parts or gaps C797S/del 1-668/del 746-750 limits assumed): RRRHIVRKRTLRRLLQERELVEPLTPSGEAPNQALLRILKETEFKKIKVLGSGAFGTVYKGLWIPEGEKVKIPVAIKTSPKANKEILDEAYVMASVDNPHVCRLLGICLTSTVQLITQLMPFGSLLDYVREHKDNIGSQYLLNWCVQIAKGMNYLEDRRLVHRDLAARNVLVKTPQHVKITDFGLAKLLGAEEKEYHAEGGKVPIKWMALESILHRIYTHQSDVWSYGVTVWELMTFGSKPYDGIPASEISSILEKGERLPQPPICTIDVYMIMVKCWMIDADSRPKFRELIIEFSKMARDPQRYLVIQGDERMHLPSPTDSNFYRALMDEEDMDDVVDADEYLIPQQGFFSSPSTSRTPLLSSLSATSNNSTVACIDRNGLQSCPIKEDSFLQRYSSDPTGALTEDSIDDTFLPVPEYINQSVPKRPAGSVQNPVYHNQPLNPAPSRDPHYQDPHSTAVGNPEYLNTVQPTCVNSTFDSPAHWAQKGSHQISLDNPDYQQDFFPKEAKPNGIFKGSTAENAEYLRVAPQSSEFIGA

For a further assay, the target named is CLK3 (Homo sapiens (Human), UniProt P49761). As to the kind of experiment: Inhibition of CLK3 kinase activity evaluated at Nanosyn (ADP-Glo). As to conditions: ADP-Glo luminescence. In outline:
(§2)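 Enzyme + substrate in HEPES pH 7.5/MgCl2/DTT buffer; compound dispensed acoustically, 1% DMSO. ATP start, assay-specific incubation time. ADP-Glo reagent 40 min, detection reagent 10 min, luminescence. %inh vs DMSO (0%) and no-enzyme (100%) controls.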
(In general: ADP-Glo turns the ADP formed in a reaction into a luminescent signal.)

Another assay concerns the target CLK4 (Homo sapiens (Human), UniProt Q9HAZ1). As to the kind of experiment: Inhibition of CLK4 kinase activity evaluated at Nanosyn (ADP-Glo). As to conditions: ADP-Glo luminescence. The method in brief:
as §2

Another assay addresses EGFR (D770_N771insNPG) (Homo sapiens (Human), UniProt P00533, INS770NPG). Description: HotSpot radiometric kinase assay, EGFR (D770_N771insNPG). The following applies: 10 μM ATP, read-out: EGFR (Δ770_N771insNPG) IC50. The method in brief: as §1
A further assay deals with EGFR L858R/T790M mutant (Homo sapiens (Human), UniProt P00533, L858R/T790M). As to the kind of experiment: HotSpot radiometric kinase assay, EGFR L858R/T790M mutant. As to conditions: 10 μM ATP. The method in brief:
as §1

Another assay deals with CLK1 (Homo sapiens (Human), UniProt P49759). Description: Inhibition of CLK1 kinase activity evaluated at Nanosyn (ADP-Glo). The following applies: ADP-Glo luminescence. In outline: as §2
CLK1, sequence (P49759 whole entry): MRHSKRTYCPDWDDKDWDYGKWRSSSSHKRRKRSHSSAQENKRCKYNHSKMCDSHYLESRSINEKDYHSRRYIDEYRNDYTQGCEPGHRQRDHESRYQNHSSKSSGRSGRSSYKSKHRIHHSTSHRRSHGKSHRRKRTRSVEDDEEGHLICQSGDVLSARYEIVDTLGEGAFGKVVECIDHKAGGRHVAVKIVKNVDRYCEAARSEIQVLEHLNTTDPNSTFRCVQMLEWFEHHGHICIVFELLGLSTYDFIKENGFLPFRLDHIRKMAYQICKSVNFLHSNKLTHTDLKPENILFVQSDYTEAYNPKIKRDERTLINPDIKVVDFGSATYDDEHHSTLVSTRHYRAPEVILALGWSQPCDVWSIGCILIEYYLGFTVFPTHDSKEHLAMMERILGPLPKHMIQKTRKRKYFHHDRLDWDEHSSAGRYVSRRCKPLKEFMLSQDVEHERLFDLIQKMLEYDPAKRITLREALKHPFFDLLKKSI
The next assay has as its target EGFR L858R mutant (Homo sapiens (Human), UniProt P00533, L858R). Description: HotSpot radiometric kinase assay, EGFR L858R mutant. As to conditions: 10 μM ATP. The method in brief:
as §1

In a further assay the target is EGFR WT (Homo sapiens (Human), UniProt P00533). As to the kind of experiment: HotSpot radiometric kinase assay (Reaction Biology), EGFR WT. The following applies: 10 μM ATP. In outline: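 Enzyme and substrate pairs were exposed to inhibitor for roughly 20 min before radiolabelled ATP (10 μM final) was introduced; the reaction proceeded 120 min at ambient temperature in pH 7.5 buffer with 1% DMSO, and phosphorylated product was captured on P81 filters for IC50 determination.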

Another assay deals with EGFR Δ746-750 mutant (Homo sapiens (Human), UniProt P00533, DEL746-750). As to the kind of experiment: HotSpot radiometric kinase assay, EGFR Δ746-750 mutant. The following applies: 10 μM ATP. The method in brief: as §1
EGFR Δ746-750 mutant, sequence (P00533 other isoform, or with tags, fused parts or gaps del 1-668/del 746-750 limits assumed): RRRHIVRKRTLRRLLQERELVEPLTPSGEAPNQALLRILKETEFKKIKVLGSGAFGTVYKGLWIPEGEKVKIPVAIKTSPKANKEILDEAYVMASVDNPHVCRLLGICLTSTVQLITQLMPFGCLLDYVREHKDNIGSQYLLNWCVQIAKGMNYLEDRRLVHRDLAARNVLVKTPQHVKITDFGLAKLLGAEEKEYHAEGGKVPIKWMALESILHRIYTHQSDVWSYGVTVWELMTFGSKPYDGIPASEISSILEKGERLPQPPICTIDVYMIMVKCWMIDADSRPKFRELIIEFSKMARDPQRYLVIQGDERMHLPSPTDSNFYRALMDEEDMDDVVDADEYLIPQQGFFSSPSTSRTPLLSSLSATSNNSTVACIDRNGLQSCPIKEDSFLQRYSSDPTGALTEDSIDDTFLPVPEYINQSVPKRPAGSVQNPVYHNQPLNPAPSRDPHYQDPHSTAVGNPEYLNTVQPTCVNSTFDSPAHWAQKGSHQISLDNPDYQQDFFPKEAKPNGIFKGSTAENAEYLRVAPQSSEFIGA
The target in another assay is CLK2 (Homo sapiens (Human), UniProt P49760). Description: Inhibition of CLK2 kinase activity evaluated at Nanosyn (ADP-Glo). As to conditions: ADP-Glo luminescence. The method in brief:
as §2

For assay [2], the target named is EGFR L858R/T790M/C797S mutant (Homo sapiens (Human), UniProt P00533, C797S/L858R/T790M). As to the kind of experiment: HotSpot radiometric kinase assay, EGFR L858R/T790M/C797S mutant. The following applies: 10 μM ATP. In outline: as §1

As usually defined, the IC50 is the point on the concentration scale where inhibition reaches its midpoint.

CLK2, sequence (P49760 whole entry): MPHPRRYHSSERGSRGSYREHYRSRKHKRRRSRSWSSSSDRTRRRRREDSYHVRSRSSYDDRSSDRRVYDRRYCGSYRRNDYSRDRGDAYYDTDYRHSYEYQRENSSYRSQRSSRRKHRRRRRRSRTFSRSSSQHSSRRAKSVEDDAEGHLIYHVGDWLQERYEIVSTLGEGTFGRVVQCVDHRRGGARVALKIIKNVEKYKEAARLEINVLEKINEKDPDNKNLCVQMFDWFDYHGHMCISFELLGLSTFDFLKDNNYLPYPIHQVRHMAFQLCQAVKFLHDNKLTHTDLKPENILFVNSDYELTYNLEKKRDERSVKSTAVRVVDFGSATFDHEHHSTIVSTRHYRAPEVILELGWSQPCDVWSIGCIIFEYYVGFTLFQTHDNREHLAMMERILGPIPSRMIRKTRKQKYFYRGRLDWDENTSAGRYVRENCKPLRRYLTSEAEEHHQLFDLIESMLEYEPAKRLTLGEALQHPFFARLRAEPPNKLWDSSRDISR
CLK3, sequence (P49761 whole entry): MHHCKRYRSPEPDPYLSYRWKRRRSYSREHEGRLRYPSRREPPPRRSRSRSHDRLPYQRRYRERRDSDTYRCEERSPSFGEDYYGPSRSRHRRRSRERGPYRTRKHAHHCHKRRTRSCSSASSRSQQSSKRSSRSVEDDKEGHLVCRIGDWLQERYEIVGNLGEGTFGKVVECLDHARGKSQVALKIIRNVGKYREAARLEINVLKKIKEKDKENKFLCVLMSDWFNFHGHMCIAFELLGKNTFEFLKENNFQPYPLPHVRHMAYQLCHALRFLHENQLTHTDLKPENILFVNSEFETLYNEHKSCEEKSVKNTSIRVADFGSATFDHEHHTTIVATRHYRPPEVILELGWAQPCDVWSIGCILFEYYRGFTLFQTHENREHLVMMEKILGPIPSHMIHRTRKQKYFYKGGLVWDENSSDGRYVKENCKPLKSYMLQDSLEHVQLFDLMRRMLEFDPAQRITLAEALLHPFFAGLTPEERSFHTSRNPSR
EGFR L858R mutant, sequence (P00533 25-1210 L858R): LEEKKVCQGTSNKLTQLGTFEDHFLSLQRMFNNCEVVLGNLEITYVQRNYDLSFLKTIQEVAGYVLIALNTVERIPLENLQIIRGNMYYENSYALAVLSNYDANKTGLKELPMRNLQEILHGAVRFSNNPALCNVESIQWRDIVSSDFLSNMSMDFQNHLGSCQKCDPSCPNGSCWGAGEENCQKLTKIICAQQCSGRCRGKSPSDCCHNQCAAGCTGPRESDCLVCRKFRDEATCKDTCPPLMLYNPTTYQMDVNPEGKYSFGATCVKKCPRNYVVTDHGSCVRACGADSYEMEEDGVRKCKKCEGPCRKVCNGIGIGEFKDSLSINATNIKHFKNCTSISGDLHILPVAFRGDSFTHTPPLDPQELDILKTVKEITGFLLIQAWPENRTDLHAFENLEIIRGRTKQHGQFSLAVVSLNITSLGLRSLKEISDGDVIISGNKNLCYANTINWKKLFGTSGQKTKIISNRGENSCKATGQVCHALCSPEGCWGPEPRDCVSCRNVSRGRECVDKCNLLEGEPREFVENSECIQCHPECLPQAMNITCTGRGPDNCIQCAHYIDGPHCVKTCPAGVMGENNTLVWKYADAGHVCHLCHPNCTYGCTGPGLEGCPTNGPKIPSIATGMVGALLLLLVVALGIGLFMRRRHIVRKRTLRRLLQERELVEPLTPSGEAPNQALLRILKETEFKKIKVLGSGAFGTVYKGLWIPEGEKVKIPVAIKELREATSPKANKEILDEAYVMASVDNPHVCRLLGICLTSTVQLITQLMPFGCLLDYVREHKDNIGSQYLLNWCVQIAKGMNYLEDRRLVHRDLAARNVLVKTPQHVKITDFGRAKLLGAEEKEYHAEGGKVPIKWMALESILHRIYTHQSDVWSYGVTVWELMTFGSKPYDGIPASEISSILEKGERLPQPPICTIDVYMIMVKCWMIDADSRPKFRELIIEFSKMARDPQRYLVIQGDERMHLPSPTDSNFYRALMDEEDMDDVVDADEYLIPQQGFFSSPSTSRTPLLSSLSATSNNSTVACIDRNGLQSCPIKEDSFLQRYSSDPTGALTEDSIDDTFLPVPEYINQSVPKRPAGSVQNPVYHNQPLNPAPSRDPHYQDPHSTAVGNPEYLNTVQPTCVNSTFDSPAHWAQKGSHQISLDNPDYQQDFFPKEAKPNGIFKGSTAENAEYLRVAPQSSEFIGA
EGFR (D770_N771insNPG), sequence (P00533 other isoform, or with tags, fused parts or gaps del 1-668/ins NPG behind 770 limits assumed): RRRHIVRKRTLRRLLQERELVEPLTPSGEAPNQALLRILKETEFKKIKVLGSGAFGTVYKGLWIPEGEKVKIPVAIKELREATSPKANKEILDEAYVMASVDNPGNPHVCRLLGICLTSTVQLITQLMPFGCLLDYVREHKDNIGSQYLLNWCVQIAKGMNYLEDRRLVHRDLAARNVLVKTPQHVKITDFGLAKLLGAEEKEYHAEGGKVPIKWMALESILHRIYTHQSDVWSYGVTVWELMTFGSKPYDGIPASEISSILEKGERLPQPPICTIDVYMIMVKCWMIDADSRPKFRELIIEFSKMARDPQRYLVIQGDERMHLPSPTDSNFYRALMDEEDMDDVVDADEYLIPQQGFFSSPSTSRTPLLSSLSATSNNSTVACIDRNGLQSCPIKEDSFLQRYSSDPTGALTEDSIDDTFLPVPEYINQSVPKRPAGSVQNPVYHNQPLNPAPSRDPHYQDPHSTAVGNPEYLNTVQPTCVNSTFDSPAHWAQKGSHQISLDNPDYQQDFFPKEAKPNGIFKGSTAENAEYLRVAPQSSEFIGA
CLK4, sequence (Q9HAZ1 whole entry): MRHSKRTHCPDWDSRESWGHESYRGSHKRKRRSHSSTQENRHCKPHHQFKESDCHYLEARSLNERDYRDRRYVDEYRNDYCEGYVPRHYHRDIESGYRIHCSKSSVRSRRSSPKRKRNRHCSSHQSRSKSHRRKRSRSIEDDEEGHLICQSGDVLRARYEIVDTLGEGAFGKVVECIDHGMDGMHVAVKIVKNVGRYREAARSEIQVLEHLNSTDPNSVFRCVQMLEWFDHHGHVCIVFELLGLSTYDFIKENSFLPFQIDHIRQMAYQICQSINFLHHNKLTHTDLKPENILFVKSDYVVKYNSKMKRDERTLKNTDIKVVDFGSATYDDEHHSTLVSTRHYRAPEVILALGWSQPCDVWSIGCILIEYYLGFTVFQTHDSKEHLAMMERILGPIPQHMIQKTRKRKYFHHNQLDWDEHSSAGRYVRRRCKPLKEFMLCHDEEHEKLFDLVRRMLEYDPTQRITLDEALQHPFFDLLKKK

In the case of `Cc1nn(CCO)c2c1/C=C/c1n[nH]c3ccc(cc13)-c1cnn(C)c1O[C@@H](C)CN(C)C2` [Example 61, 2-[(10S,17E)-8,10,12,16-tetramethyl-2,8,10,11,12,13-hexahydro-14H-3,5-ethenotripyrazolo[3,4-f:3′,4′-j:4″,3″- n][1,4]oxazacyclopentadecin-14-yl]ethan-1-ol], the IC50 amounted to 1.96 nM in assay [1]; 21.4 nM on CLK3; 0.76 nM at CLK4; 9.21 nM on EGFR (D770_N771insNPG); 0.29 nM at EGFR L858R/T790M mutant; 0.21 nM at CLK1. The concentration for half-maximal inhibition (IC50) against EGFR L858R mutant was found to be 1.23 nM; against EGFR WT it was 6.19 nM; at EGFR Δ746-750 mutant, 1.08 nM; on CLK2, 0.06 nM; in assay [2] it was 0.17 nM.

In the case of `CCN1Cc2nn(C)c(C)c2/C=C/c2n[nH]c3ccc(cc23)-c2cnn(C)c2O[C@@H](C)C1` [Example 59, (10S,17E)-12-ethyl-8,10,15,16-tetramethyl-2,10,11,12,13,15-hexahydro-8H-3,5-ethenotripyrazolo[3,4-f:3′,4′-j:4″,3″-n][1,4]oxazacyclopentadecine], the concentration for half-maximal inhibition (IC50) in [1] amounted to 2.42 nM; at CLK3 it was 541 nM; at CLK4, 2.03 nM; at EGFR (D770_N771insNPG) it was 127 nM; on EGFR L858R/T790M mutant, 0.7 nM; at CLK1, 0.82 nM. Further, the IC50 worked out at 7.63 nM against EGFR L858R mutant; 44.1 nM against EGFR WT; 18.6 nM against EGFR Δ746-750 mutant; 2.13 nM at CLK2; 1.02 nM in [2].

For `Cc1nn(CCO)c2c1/C=C/c1n[nH]c3cc(Cl)c(cc13)-c1cnn(C)c1O[C@@H](C)CN(C)C2` [Example 125, 2-[(10S,17E)-19-chloro-8,10,12,16-tetramethyl-2,8,10,11,12,13-hexahydro-14H-3,5-ethenotripyrazolo[3,4-f:3′,4′-j:4″,3″-n][1,4]oxazacyclopentadecin-14-yl]ethan-1-ol], the IC50 worked out at 4.99 nM in [1]; 1000 nM on CLK3; 4.31 nM at CLK4; 175 nM on EGFR (D770_N771insNPG); 43.6 nM at EGFR L858R/T790M mutant; 3.44 nM at CLK1. The 50% inhibitory concentration (IC50) against EGFR L858R mutant worked out at 11.9 nM; against EGFR WT, 138 nM; at EGFR Δ746-750 mutant it was 20.6 nM; on CLK2, 2.81 nM; in [2], 7.49 nM.

For `CCOc1nn(C)c2c1/C=C/c1n[nH]c3cc(F)c(cc13)-c1cnn(C)c1O[C@@H](C)CN(CC)C2` [Example 206, (10S,17E)-16-ethoxy-12-ethyl-19-fluoro-8,10,14-trimethyl-2,10,11,12,13,14-hexahydro-8H-3,5-ethenotripyrazolo[3,4-f:3′,4′-j:4″,3″-n][1,4]oxazacyclopentadecine], the IC50 is 0.74 nM in assay [1]; 477 nM at CLK3; 3.69 nM on CLK4; 43.5 nM on EGFR (D770_N771insNPG); 0.52 nM against EGFR L858R/T790M mutant; 1.67 nM at CLK1. Further, the IC50 at EGFR L858R mutant is 1.69 nM; at EGFR WT it was 3.33 nM; against EGFR Δ746-750 mutant it was 0.76 nM; at CLK2 it was 1.72 nM; in [2], 1.46 nM.

As for `CCOc1nn(CCO)c2c1/C=C/c1n[nH]c3ccc(cc13)-c1cnn(C)c1OC[C@H](CC)N(C)C2` [Example 259, 2-[(11S,17E)-16-ethoxy-11-ethyl-8,12-dimethyl-2,8,10,11,12,13-hexahydro-14H-3,5-ethenotripyrazolo[3,4-f:3′,4′-j:4″,3″-n][1,4]oxazacyclopentadecin-14-yl]ethan-1-ol], the IC50 was determined as 22.9 nM in assay [1]; 1000 nM on CLK3; 1.3 nM at CLK4; 500 nM on EGFR (D770_N771insNPG); 9.39 nM at EGFR L858R/T790M mutant; 0.9 nM at CLK1. Also, the IC50 was found to be 66.5 nM against EGFR L858R mutant; 329 nM at EGFR WT; 40.1 nM against EGFR Δ746-750 mutant; 4.29 nM on CLK2; 21.8 nM in assay [2].

Take `Cn1ncc2c1OCCN1CC[C@@H](Oc3ccc(F)cc3/C=C/c3n[nH]c4ccc-2cc34)C1=O` [Example 132, (10R,16E)-14-fluoro-3-methyl-3,5,6,9,10,19-hexahydro-8H-20,22-etheno-7,10-methanodipyrazolo[3,4-i:4′,3′-m][1,8,5]benzodioxazacyclooctadecin-25-one]: the IC50 came to 67 nM in assay [1]; 0.28 nM at CLK3; 0.3 nM on CLK4; 284 nM at EGFR (D770_N771insNPG); 20.1 nM against EGFR L858R/T790M mutant; 0.19 nM on CLK1. Moreover, the half-inhibitory concentration (IC50) turned out to be 157 nM at EGFR L858R mutant; 721 nM against EGFR WT; 39.4 nM at EGFR Δ746-750 mutant; 0.02 nM at CLK2; 35.3 nM in [2].

For the molecule `CCOc1nn([C@@H](C)CO)c2c1/C=C/c1n[nH]c3cc(F)c(cc13)-c1cnn(C)c1OC[C@H](C)N(C(C)C)C2` [Example 228, (2S)-2-[(11S,17E)-16-ethoxy-19-fluoro-8,11-dimethyl-12-(propan-2-yl)-2,8,10,11,12,13-hexahydro-14H-3,5-ethenotripyrazolo[3,4-f:3′,4′-j:4″,3″- n][1,4]oxazacyclopentadecin-14-yl]propan-1-ol], the IC50 in [1] was found to be 44.4 nM; at CLK3, 1000 nM; on CLK4, 34 nM; on EGFR (D770_N771insNPG), 481 nM; on EGFR L858R/T790M mutant, 25.9 nM; on CLK1 it was 21.9 nM. Besides, the IC50 was determined as 25.2 nM against EGFR L858R mutant; 52.7 nM against EGFR WT; 12.2 nM on EGFR Δ746-750 mutant; 8.6 nM on CLK2; 10.6 nM in [2].

`CC(C)Oc1nn(CCO)c2c1/C=C/c1n[nH]c3ccc(cc13)-c1cnn(C)c1O[C@H](C)CN(C(C)C)C2` [Example 193, 2-{(10R,17E)-8,10-dimethyl-12-(propan-2-yl)-16-[(propan-2-yl)oxy]-2,8,10,11,12,13-hexahydro-14H-3,5-ethenotripyrazolo[3,4-f:3′,4′-j:4″,3″-n][1,4]oxazacyclopentadecin-14-yl}ethan-1-ol]: the 50% inhibitory concentration (IC50) in assay [1] was 5.92 nM; at CLK3, 1000 nM; on CLK4 it was 21 nM; at EGFR (D770_N771insNPG), 77.3 nM; on EGFR L858R/T790M mutant, 2.42 nM; at CLK1, 31.8 nM. For the same molecule, the IC50 was found to be 36.6 nM against EGFR L858R mutant; 90.1 nM on EGFR WT; 10.2 nM against EGFR Δ746-750 mutant; 45.4 nM on CLK2; 1.05 nM in assay [2].

For the molecule `C[C@H]1CN(C)Cc2c(c(O)nn2CCO)/C=C/c2n[nH]c3ccc(cc23)-c2cnn(C)c2O1` [Example 186, (10S,17E)-14-(2-hydroxyethyl)-8,10,12-trimethyl-2,10,11,12,13,14-hexahydro-8H-3,5-ethenotripyrazolo[3,4-f:3′,4′-j:4″,3″-n][1,4]oxazacyclopentadecin-16-ol], the IC50 in assay [1] amounted to 3.06 nM; at CLK3, 126 nM; on CLK4 it was 1 nM; at EGFR (D770_N771insNPG) it was 59.1 nM; at EGFR L858R/T790M mutant, 1.48 nM; at CLK1, 0.24 nM. Moreover, the concentration for half-maximal inhibition (IC50) turned out to be 14.6 nM against EGFR L858R mutant; 43.8 nM against EGFR WT; 12.9 nM on EGFR Δ746-750 mutant; 0.18 nM on CLK2; 0.46 nM in assay [2].

For the molecule `C[C@H]1CN(C)Cc2onc(C3CC3)c2/C=C/c2n[nH]c3ccc(cc23)-c2cnn(C)c2O1` [Example 173, (10S,17E)-16-cyclopropyl-8,10,12-trimethyl-2,8,10,11,12,13-hexahydro-3,5-etheno[1,2]oxazolo[5,4-f]dipyrazolo[3,4-j:4′,3′-n][1,4]oxazacyclopentadecine], the IC50 in assay [1] is 127 nM; at CLK3 it was 1000 nM; at CLK4, 1.26 nM; on EGFR (D770_N771insNPG), above 1000 nM; on EGFR L858R/T790M mutant, 45.5 nM; on CLK1 it was 0.7 nM. Further, the IC50 at EGFR L858R mutant is 513 nM; on EGFR WT, above 1000 nM; against EGFR Δ746-750 mutant, 533 nM; at CLK2, 0.89 nM; in assay [2] it was 27.4 nM.
